Assay results: article PMC9851200, “Multiparameter phenotypic screening for endogenous TFEB and TFE3 translocation identifies novel chemical series modulating lysosome function” (Autophagy, 2022)
Like-named read-outs stand apart in the source and are kept apart here.

Experiments:
Assay in all cases: biochemical
Format in all cases: binding
[1] = molecular target: T1, cellular kinases of SH-SY5Y cells (Homo sapiens, UniProt O14920); details: 2µM; SH-SY5Y cells; Labeling Site Lys2; DLKPENIVLQQGEQR; read-out: KiNativ in-cell binding, % Inhibition, IKBKB/IKKb
T1 construct: endogenous in cells; host or cells: SH-SY5Y
Source text: (§1) As KINOMEscan is an in vitro assay, and as different cell types have variable kinase expression profiles we sought to determine the kinase binding profile in our SH-SY5Y TFEB-relocalization cell model. […] Bound kinases were pulled down and analyzed by mass spectrometry to determine the in situ kinase binding profile for each compound.

[2] = molecular target: cellular kinases of SH-SY5Y cells (Homo sapiens, UniProt Q13535); details: 2µM; SH-SY5Y cells; Labeling Site ATP; FYIMMCKPK; read-out: KiNativ in-cell binding, % Inhibition, ATR
Source text: as §1

[3] = molecular target: T2, cellular kinases of SH-SY5Y cells (Homo sapiens, UniProt Q9NRH2); details: 2µM, SH-SY5Y cells, read-out: KiNativ in-cell binding, % Inhibition, SNRK
T2 construct: endogenous in cells; host or cells: SH-SY5Y
Source text: as §1

[4] = molecular target: cellular kinases of SH-SY5Y cells (Homo sapiens, UniProt O00418); details: 2µM; SH-SY5Y cells; Labeling Site ATP; YIKYNSNSGFVR; read-out: KiNativ in-cell binding, % Inhibition, eEF2K
Source text: as §1

[5] = molecular target: T3, cellular kinases of SH-SY5Y cells (Homo sapiens, UniProt Q9BYT3); details: 2µM; SH-SY5Y cells; Labeling Site Lys2; DLKLENIMVK; read-out: KiNativ in-cell binding, % Inhibition, STK33
T3 construct: endogenous in cells; host or cells: SH-SY5Y
Source text: as §1

[6] = molecular target: cellular kinases of SH-SY5Y cells (Homo sapiens, UniProt P49841); details: read-out: KiNativ in-cell binding, % Inhibition, GSK3B
Source text: as §1

[7] = molecular target: cellular kinases of SH-SY5Y cells (Homo sapiens, UniProt P50613); details: 2µM; SH-SY5Y cells; Labeling Site Lys2; DLKPNNLLLDENGVLK; read-out: KiNativ in-cell binding, % Inhibition, CDK7
Source text: as §1

[8] = molecular target: cellular kinases of SH-SY5Y cells (Homo sapiens, UniProt P53350); details: 2µM, SH-SY5Y cells, read-out: KiNativ in-cell binding, % Inhibition, PLK1
Source text: as §1

[9] = molecular target: T4, cellular kinases of SH-SY5Y cells (Homo sapiens, UniProt Q6PHR2); details: 2µM; SH-SY5Y cells; labeling site Lys1; peptide EVVAIKCVAK
T4 construct: endogenous in cells; host or cells: SH-SY5Y
Source text: as §1

[10] = molecular target: cellular kinases of SH-SY5Y cells (Homo sapiens, UniProt Q8IU85); details: 2µM, SH-SY5Y cells
Source text: as §1

[11] = molecular target: cellular kinases of SH-SY5Y cells (Homo sapiens, UniProt Q5S007); details: 2µM; SH-SY5Y cells; Labeling Site Lys2; DLKPHNVLLFTLYPNAAIIAK; read-out: KiNativ in-cell binding, % Inhibition, LRRK2
Source text: as §1

[12] = molecular target: cellular kinases of SH-SY5Y cells (Homo sapiens, UniProt Q9Y6M4); details: 2µM; SH-SY5Y cells; Labeling Site Lys2; DVKPENFLIGRPGNK; read-out: KiNativ in-cell binding, % Inhibition, CSNK1G3
Source text: as §1

[13] = system: cellular kinases of SH-SY5Y cells
Source text: as §1

[14] = molecular target: T5, cellular kinases of SH-SY5Y cells (Homo sapiens, UniProt P45985); details: 2µM, SH-SY5Y cells; for inhibition at 2 µM: read-out: KiNativ in-cell binding, % Inhibition, MAP2K4
T5 sequence (P45985 1-399): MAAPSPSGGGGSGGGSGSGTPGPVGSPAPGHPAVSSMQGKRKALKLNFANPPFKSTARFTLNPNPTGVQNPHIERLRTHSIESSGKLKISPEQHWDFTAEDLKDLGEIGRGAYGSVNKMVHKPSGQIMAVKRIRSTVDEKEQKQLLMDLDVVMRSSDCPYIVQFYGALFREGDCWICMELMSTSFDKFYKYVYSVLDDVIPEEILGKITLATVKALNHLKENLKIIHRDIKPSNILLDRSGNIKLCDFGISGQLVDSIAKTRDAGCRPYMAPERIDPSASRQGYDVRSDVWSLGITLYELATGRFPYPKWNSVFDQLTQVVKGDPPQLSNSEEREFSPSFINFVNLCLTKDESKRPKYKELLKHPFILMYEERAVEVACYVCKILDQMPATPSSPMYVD
Source text: as §1

[15] = molecular target: cellular kinases of SH-SY5Y cells (Homo sapiens, UniProt Q9Y2U5); details: 2µM; SH-SY5Y cells; Labeling Site Lys1; ELAVKQVQFDPDSPETSKEVNALECEIQLLK; read-out: KiNativ in-cell binding, % Inhibition, MAP3K2
Source text: as §1

[16] = molecular target: cellular kinases of SH-SY5Y cells (Homo sapiens, UniProt P49840); details: 2µM; SH-SY5Y cells; labeling site Lys2; peptide DIKPQNLLVDPDTAVLK
Source text: as §1

Sequence of cellular kinases of SH-SY5Y cells (Homo sapiens, UniProt P53350) (P53350 whole entry): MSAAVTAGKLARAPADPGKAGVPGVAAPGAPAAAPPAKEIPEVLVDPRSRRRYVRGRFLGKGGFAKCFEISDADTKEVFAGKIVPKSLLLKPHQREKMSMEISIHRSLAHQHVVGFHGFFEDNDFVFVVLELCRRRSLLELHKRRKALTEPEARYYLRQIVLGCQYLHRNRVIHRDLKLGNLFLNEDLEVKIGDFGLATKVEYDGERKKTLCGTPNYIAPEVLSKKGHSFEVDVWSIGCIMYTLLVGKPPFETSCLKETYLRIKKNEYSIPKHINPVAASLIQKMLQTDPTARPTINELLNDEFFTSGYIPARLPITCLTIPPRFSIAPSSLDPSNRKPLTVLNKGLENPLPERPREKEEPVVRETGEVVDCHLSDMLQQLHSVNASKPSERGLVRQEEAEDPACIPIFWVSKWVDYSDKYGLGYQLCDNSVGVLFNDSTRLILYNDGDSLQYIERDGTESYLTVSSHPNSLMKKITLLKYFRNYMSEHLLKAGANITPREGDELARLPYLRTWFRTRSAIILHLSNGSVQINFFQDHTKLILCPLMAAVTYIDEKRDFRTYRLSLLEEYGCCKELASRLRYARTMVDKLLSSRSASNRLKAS
T2 sequence (Q9NRH2 whole entry): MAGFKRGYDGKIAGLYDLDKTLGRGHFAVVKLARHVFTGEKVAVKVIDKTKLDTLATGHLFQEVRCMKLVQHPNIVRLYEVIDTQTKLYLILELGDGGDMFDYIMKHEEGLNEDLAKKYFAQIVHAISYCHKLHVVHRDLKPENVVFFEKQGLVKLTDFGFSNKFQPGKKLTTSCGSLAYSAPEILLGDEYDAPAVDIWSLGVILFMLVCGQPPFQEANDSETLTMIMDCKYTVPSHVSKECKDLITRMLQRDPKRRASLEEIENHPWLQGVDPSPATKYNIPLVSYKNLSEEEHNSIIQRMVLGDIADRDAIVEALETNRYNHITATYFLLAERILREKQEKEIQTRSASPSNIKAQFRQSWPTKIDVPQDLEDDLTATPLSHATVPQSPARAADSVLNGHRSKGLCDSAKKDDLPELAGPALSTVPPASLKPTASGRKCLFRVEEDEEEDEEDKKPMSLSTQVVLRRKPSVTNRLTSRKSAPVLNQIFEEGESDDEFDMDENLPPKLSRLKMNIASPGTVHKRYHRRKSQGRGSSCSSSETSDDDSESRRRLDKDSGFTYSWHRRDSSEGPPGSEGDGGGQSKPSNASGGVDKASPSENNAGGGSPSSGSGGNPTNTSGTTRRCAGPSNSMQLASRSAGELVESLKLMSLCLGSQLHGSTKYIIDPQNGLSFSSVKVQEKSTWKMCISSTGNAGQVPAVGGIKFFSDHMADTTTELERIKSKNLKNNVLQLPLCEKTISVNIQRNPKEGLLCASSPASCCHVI
Sequence of cellular kinases of SH-SY5Y cells (Homo sapiens, UniProt Q8IU85) (Q8IU85 whole entry): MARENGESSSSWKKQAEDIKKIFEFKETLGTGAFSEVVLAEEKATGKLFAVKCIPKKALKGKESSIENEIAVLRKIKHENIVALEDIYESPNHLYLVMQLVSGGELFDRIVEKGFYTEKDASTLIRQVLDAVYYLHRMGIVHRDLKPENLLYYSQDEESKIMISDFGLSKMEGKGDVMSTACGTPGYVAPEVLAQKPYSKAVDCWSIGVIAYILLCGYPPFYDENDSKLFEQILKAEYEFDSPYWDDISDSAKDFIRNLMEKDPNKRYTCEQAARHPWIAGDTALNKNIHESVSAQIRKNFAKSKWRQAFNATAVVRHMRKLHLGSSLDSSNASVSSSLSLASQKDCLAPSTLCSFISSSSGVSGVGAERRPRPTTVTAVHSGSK
Sequence of cellular kinases of SH-SY5Y cells (Homo sapiens, UniProt Q13535) (Q13535 whole entry): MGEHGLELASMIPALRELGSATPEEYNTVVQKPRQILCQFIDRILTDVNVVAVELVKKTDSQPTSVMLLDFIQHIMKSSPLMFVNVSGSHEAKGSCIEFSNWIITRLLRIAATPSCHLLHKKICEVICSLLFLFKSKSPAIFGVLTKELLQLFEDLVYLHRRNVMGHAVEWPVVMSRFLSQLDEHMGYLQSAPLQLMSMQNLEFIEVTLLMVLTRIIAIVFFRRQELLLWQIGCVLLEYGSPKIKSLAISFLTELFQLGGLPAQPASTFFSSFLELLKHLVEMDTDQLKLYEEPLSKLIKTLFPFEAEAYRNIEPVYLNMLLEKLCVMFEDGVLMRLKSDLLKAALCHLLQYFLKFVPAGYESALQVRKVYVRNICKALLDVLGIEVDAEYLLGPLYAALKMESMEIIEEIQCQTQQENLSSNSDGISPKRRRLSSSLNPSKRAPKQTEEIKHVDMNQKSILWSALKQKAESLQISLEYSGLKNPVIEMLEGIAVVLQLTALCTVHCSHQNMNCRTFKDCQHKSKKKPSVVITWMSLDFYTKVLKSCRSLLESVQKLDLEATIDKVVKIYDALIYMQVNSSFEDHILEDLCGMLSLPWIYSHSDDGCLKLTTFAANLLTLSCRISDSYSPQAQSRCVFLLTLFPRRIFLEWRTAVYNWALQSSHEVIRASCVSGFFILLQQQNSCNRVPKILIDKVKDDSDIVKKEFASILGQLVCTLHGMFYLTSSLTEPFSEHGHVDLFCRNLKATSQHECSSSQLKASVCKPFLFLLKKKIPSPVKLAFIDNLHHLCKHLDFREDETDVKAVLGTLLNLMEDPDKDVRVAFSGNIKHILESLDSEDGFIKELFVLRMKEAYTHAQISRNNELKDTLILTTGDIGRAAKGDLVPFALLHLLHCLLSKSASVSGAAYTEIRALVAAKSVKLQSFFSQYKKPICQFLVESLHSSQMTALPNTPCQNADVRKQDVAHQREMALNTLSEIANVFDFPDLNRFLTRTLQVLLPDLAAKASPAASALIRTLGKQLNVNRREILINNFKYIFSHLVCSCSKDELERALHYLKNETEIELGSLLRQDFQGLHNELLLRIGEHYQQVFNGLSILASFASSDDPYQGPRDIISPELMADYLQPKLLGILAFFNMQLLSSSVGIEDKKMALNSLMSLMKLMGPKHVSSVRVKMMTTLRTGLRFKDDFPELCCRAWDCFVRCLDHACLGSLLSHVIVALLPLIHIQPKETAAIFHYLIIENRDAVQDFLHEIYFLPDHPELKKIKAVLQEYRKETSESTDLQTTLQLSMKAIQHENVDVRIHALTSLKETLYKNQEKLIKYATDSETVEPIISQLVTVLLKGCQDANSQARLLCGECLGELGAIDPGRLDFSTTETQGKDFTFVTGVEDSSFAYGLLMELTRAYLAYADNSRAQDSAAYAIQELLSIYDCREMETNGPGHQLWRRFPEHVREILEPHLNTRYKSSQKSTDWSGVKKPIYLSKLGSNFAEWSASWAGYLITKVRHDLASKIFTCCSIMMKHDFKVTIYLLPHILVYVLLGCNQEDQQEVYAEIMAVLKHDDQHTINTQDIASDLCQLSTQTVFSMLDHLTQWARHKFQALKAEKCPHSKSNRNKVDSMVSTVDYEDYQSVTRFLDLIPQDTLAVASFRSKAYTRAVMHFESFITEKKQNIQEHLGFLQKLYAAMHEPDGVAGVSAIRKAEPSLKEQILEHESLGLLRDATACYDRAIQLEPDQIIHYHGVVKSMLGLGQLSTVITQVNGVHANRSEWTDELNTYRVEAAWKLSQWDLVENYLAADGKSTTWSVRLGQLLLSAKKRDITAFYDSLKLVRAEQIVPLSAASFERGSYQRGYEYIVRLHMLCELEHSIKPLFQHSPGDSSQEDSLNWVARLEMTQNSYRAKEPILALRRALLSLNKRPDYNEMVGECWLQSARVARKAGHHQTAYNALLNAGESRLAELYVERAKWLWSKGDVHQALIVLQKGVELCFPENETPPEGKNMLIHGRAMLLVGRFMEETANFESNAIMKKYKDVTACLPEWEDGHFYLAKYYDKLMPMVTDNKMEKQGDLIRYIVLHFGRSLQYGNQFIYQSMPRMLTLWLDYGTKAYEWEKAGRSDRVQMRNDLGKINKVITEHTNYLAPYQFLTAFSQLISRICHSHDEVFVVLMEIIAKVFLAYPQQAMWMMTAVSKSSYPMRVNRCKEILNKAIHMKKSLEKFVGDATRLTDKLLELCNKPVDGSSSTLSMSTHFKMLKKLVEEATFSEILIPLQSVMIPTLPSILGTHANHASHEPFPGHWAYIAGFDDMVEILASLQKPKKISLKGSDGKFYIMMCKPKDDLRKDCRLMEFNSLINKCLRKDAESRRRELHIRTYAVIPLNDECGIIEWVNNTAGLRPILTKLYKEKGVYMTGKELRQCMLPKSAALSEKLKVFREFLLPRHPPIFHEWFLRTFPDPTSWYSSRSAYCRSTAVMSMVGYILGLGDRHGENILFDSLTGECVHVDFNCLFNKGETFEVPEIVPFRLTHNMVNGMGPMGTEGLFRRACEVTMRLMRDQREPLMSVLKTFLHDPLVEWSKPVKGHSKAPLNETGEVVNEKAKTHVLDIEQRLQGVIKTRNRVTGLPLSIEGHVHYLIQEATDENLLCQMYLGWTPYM
Sequence of cellular kinases of SH-SY5Y cells (Homo sapiens, UniProt Q9Y2U5) (Q9Y2U5 whole entry): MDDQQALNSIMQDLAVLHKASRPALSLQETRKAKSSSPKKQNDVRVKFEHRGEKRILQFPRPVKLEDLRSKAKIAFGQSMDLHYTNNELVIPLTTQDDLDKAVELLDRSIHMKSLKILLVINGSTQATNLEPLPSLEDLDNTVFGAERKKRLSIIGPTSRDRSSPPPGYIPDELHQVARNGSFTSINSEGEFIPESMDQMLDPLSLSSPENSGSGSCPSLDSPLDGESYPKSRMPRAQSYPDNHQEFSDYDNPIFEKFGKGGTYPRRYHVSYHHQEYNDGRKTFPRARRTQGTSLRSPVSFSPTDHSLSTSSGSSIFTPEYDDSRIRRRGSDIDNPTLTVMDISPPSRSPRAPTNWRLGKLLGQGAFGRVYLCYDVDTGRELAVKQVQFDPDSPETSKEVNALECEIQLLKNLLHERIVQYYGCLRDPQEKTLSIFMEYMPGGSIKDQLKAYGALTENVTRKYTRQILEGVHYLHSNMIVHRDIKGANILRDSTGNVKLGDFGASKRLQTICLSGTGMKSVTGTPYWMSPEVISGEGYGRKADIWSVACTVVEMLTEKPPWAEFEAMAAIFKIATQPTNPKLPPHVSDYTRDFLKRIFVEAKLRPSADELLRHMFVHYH

Cc1cccc(-c2nc(Nc3ccc4ncsc4c3)c3ccccc3n2)n1 [NK140] showed an inhibition at 2 µM [1] of -43%, an inhibition at 2 µM [2] of -42.5% and an inhibition at 2 µM ([3]; Labeling Site Lys1, VAVKVIDK) of 37.3%. It also gave an inhibition at 2 µM ([3]; Labeling Site Lys2, DLKPENVVFFEK) of 36.3%, an inhibition at 2 µM [4] of 26% and an inhibition at 2 µM [5] of -1.4%. It also gave an inhibition at 2 µM [6] of 15.8%, an inhibition at 2 µM [7] of 56.5% and an inhibition at 2 µM ([8]; Labeling Site Lys1, CFEISDADTKEVFAGKIVPK) of 26%. The inhibition at 2 µM ([8]; Labeling Site Lys2, DLKLGNLFLNEDLEVK) was 9%, the “KiNativ in-cell binding, ULK3” value [9] was -25.0 and the inhibition at 2 µM ([10]; Labeling Site Lys1, LFAVKCIPK, read-out: KiNativ in-cell binding, % Inhibition, CaMK1d) was -23%. For the same compound, the “KiNativ in-cell binding, CaMK1d” value ([10]; labeling site Lys2, peptide DLKPENLLYYSQDEESK) was -24.1, the inhibition at 2 µM [11] was 6% and the inhibition at 2 µM [12] was -29%. For the same compound, the “KiNativ in-cell binding, % Inhibition, CaMK2a, CaMK2b, CaMK2d, CaMK2g” value [13] was 16.4%, the “KiNativ in-cell binding, AKT1, AKT3” value [13] was -0.000814 and the “KiNativ in-cell binding, % Inhibition, AKT1, AKT3” value ([13]; 2 µM) was 34.2%. For the same compound, the “KiNativ in-cell binding, % Inhibition, STK17A/DRAK1, STK17B/DRAK2” value ([13]; 2µM, SH-SY5Y cells, Labeling Site ATP Loop, GKFAVVR) was -4.6%, the “KiNativ in-cell binding, % Inhibition, AURKA/AurA, AURKB/AurB, AURKC/AurC” value ([13]; 2µM, SH-SY5Y cells, Labeling Site ATP Loop, GKFGNVYLAR) was 24.2% and the “KiNativ in-cell binding, % Inhibition, CSNK1G1, CSNK1G2, CSNK1G3” value ([13]; 2µM, SH-SY5Y cells, Labeling Site ATP Loop, KIGCGNFGELR) was 8.1%. For the same compound, the “KiNativ in-cell binding, % Inhibition, Wnk1, Wnk2, Wnk4” value ([13]; 2µM, SH-SY5Y cells, Labeling Site Activation Loop, IGDLGLATLKR) was 6.9%, the “KiNativ in-cell binding, % Inhibition, MERTK/MER, TYRO3” value ([13]; 2µM, SH-SY5Y cells, Labeling Site Activation Loop, KIYSGDYYR) was -4.5% and the “KiNativ in-cell binding, % Inhibition, KSR1, KSR2” value ([13]; 2µM, SH-SY5Y cells, Labeling Site Activation Loop, SKNVFYDNGK) was 5.1%. The “KiNativ in-cell binding, % Inhibition, MARK3, MARK4” value ([13]; 2µM, SH-SY5Y cells, Labeling Site Lys1, EVAIKIIDK) was 2.7%, the “KiNativ in-cell binding, % Inhibition, MARK1, MARK2” value ([13]; 2µM, SH-SY5Y cells, Labeling Site Lys1, EVAVKIIDK) was 1.8% and the “KiNativ in-cell binding, % Inhibition, TAOK1, TAOK3” value ([13]; 2µM, SH-SY5Y cells, Labeling Site Lys2, DIKAGNILLTEPGQVK) was 26.0%. The “KiNativ in-cell binding, % Inhibition, MAP3K2, MAP3K3” value ([13]; 2µM, SH-SY5Y cells, Labeling Site Lys2, DIKGANILR) was 28.5%, the “KiNativ in-cell binding, % Inhibition, NEK6, NEK7” value ([13]; 2µM, SH-SY5Y cells, Labeling Site Lys2, DIKPANVFITATGVVK) was -7.5% and the “KiNativ in-cell binding, % Inhibition, MARK2, MARK3” value ([13]; 2µM, SH-SY5Y cells, Labeling Site Lys2, DLKAENLLLDADMNIK) was -28.6%. For the same compound, the “KiNativ in-cell binding, % Inhibition, Wnk1, Wnk2, Wnk3” value ([13]; 2µM, SH-SY5Y cells, Labeling Site Lys2, DLKCDNIFITGPTGSVK) was 6.4%, the “KiNativ in-cell binding, % Inhibition, PRKCA/PKCa, PRKCB/PKCb” value ([13]; 2µM, SH-SY5Y cells, Labeling Site Lys2, DLKLDNVMLDSEGHIK) was -2.4% and the “KiNativ in-cell binding, % Inhibition, CSNK1D, CSNK1E” value ([13]; 2µM, SH-SY5Y cells, Labeling Site Lys2, DVKPDNFLMGLGKK) was 19.5%. The “KiNativ in-cell binding, % Inhibition, ROCK1, ROCK2” value ([13]; 2µM, SH-SY5Y cells, Labeling Site Lys2, DVKPDNMLLDK) was -44.8%, the “KiNativ in-cell binding, % Inhibition, MAPKAPK2, MAPKAPK3” value ([13]; 2µM, SH-SY5Y cells, Labeling Site Lys2, DVKPENLLYTSK) was 16.8% and the “KiNativ in-cell binding, % Inhibition, PRKCA/PKCa, PRKCG/PKCg” value ([13]; 2µM, SH-SY5Y cells, Labeling Site Other, NLIPMDPNGLSDPYVKLK) was -18.8%. The “KiNativ in-cell binding, % Inhibition, PI4KA, PI4KAP2” value ([13]; 2µM, SH-SY5Y cells, Labeling Site Unassigned, SGTPMQSAAKAPYLAK) was 1.2%, the “KiNativ in-cell binding, IKKe, TBK1” value ([13]; 2µM, SH-SY5Y cells, labeling site Lys2, peptide DIKPGNIMR) was -85.5 and the “KiNativ in-cell binding, MYO3A, MYO3B” value ([13]; 2µM, SH-SY5Y cells, labeling site Lys2, peptide DVKGNNILLTTEGGVK) was 0.9. The “KiNativ in-cell binding, MAP2K1, MAP2K2” value ([13]; 2µM, SH-SY5Y cells, labeling site Lys2, peptide DVKPSNILVNSR) was -3.2, the inhibition at 2 µM ([14]; Labeling Site Activation Loop, LCDFGISGQLVDSIAKTR) was -2.3% and the inhibition at 2 µM ([14]; Labeling Site Lys2, DIKPSNILLDR) was 4%. For the same compound, the “KiNativ in-cell binding, MAP2K4” value ([14]; labeling site Lys1, peptide MVHKPSGQIMAVKR) was 26.1, the inhibition at 2 µM [15] was -2% and the “KiNativ in-cell binding, GSK3A” value [16] was 7.1.
